Experimental data as given in patent US6656968B1, “(Z)-styryl acetoxyphenyl sulfides as cyclooxygenase inhibitors” (Temple University - Of the Commonwealth System of Higher …, priority 1999, dated 2003).

How the values were obtained:
human recombinant COX-2 = target: T1, human recombinant COX-2 (Homo sapiens, UniProt P35354); assay: Cyclooxygenase enzyme assay (TLC method), COX-2; type: biochemical; conditions: human recombinant COX-2, preincubation 90-120 min, [1-14C]arachidonic acid 50 μM
T1 construct: purchased Oxford Biomedical Research Inc
T1 sequence (P35354 18-604): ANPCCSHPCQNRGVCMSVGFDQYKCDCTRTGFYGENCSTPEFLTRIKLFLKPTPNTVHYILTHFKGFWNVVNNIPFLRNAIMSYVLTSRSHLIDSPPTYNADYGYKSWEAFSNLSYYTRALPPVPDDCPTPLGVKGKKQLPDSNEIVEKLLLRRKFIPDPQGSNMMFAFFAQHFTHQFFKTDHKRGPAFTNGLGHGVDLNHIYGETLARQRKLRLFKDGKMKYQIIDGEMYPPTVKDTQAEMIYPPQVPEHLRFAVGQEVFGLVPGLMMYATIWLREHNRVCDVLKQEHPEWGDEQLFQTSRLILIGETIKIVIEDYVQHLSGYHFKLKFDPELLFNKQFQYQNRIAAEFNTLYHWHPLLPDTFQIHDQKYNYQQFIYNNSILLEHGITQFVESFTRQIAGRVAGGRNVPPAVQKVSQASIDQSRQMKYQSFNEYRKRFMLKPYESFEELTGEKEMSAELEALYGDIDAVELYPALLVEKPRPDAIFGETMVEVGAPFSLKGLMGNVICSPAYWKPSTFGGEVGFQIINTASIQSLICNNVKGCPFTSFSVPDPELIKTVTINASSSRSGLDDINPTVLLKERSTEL
Protocol: The compounds of formula I are potent inhibitors of COX-2. […] The resulting radiolabeled prostanoid compounds, i.e., the products of COX-2 reaction with arachidonic acid, were quantified.
(§1) Cyclooxygenase activity of ovine COX-1 (Oxford Biomedical Research Inc.) and human recombinant COX-2 Oxford Biomedical Research Inc.) was assayed by a thin layer chromatography (TLC) method as follows. All inhibitors were dissolved in dimethyl sulfoxide to a stock solution of 5 mM. Human recombinant COX-2 (3 units) or ovine COX-1 (15 units) was incubated with inhibitors at several concentrations in a solution containing 100 mM Tris-HCl, pH7.8, 500 uM phenol and hematin for 90 to 120 minutes at room temperature (24° C.). In controls, equal volumes of DMSO without drug were added to the incubation mixture. After incubation for 90-120 minutes, [1-^14C]arachidonic acid (50 μM, 51 mCi/mmol) (DuPont NEN) was added and incubated at 37° C. for 2 minutes. The reaction was terminated by extraction with 1 ml of ethyl acetate. The ethyl acetate layer was transferred into a fresh tube and evaporated to dryness in a Speedvac vacuum dryer. The contents of the tubes were reconstituted in […] of ethyl acetate and spotted on a TLC plate (J. T. Baker, Phillipsburg, N.J.) and developed in a mobile phase containing chloroform/methanol (95:5) at4° C. Radiolabeled prostanoid compounds (the products of COX enzymatic reaction with radiolabeled arachidonic acid substrate) were quantitated with a radioactivity scanner (Fuji, Phosphorimager). The percentage of total products observed at different inhibitor concentrations was divided by the percentage of the products observed for protein samples pre incubated for the same time with DMSO.

ovine COX-1 = target: T2, ovine COX-1 (Ovis aries, UniProt P05979); assay: Cyclooxygenase enzyme assay (TLC method), COX-1; type: biochemical; conditions: ovine COX-1, preincubation 90-120 min, [1-14C]arachidonic acid 50 μM
T2 construct: purchased Oxford Biomedical Research Inc
T2 sequence (P05979 25-600): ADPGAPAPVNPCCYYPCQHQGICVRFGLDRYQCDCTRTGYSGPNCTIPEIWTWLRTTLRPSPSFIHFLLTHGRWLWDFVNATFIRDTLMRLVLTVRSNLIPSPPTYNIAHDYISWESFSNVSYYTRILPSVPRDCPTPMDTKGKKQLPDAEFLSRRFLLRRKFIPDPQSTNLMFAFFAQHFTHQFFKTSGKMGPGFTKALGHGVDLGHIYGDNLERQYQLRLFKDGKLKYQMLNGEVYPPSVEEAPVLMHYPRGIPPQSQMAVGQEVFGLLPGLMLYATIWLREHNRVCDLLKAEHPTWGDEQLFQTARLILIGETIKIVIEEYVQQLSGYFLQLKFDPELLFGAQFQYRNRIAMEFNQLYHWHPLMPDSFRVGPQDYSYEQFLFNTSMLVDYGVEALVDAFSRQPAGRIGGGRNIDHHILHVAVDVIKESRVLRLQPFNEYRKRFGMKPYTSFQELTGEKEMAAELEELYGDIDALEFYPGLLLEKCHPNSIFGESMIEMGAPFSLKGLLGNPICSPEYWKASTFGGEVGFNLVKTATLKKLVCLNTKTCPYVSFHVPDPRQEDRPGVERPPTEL
Protocol: as §1

HT29 cells [1] = assay: Soft agar assay, HT29 cells; type: cell-based, human; conditions: HT29 in soft agar
Protocol: (§2) Z-styryl 2-acetoxyphenylsulfide (Example 1) was compared to the COX-2 inhibitor celecoxib in inhibiting the growth of HT29 cells in soft agar. HT29 cells are human colorectal carcinoma cells that overexpress COX-2. HT29 cells grow in soft agar and form tumors in nude mice. The soft agar assay was performed as follows. A layer of bottom agar ([…]) was placed onto 60 mm^2 tissue culture dishes. The tumor cells were trypsinized from normal growth flasks while in exponential growth. The cells were counted by using a hemacytometer and 1.0×10^5 cells were placed into the top agar mixture containing growth medium, […] and various concentrations of drugs. The concentration range was normally between 10 μM to 75 μM. The cells were not refed during the assay system; therefore, the cells were treated with one dose of the agents. The plates were stained 20 days later with a 0.05% (w/v) nitroblue tetrazolium solution (which stains only viable cells) for 48 hours. […] The same concentration of Z-styryl 2-acetoxyphenylsulfide had little affect on the growth of monolayer cells.

HT29 cells [2] = assay: Growth of monolayer cells; type: cell-based, human; conditions: same concentration (10 μM)
Protocol: as §2

DLD-1 cells = assay: Soft agar assay, DLD-1 cells; type: cell-based, human; conditions: DLD-1 in soft agar, highest concentration tested, versus untreated control cells (FIG. 1)
Protocol: as §2
The same assay was carried out with DLD-1 cells. Like HT29, DLD-1 cells are human colorectal carcinoma cells that overexpress COX-2. They grow in soft agar and form tumors in nude mice. The results are shown in FIG. 1, the y-axis being the percent of cell colonies remaining in comparison to untreated control cells.

| SMILES | IC50 (human recombinant COX-2) [nM] | IC50 (ovine COX-1) [nM] | inhibition of anchorage independent growth (HT29 cells [1]; lowest concentration tested (10 μM), one dose, stained 20 days later) | concentrations at which plates were devoid of all staining cells (HT29 cells [1]; nitroblue tetrazolium stain (viable cells)) | effect on the growth of monolayer cells (HT29 cells [2]) | inhibition of cell colony growth (DLD-1 cells) [%] |
| --- | --- | --- | --- | --- | --- | --- |
| CC(=O)Oc1ccccc1S/C=C\c1ccccc1Cl [Example 3, Z-2-Chlorostyryl 2-acetoxyphenylsulfide] | 250 | 4000 | – | – | – | – |
| CC(=O)Oc1ccccc1S/C=C\c1ccc(Cl)cc1 [Example 4, Z-4-Chlorostyryl 2-acetoxyphenylsulfide] | 200 | 4000 | – | – | – | – |
| CC(=O)Oc1ccccc1S/C=C\c1ccc(F)cc1 [Example 2, Z-4-Fluorostyryl 2-acetoxyphenylsulfide] | 350 | 4500 | – | – | – | – |
| CC(=O)Oc1cccc(/C=C\Sc2ccccc2OC(C)=O)c1 [Example 10, Z-3-Acetoxystyryl 2-acetoxyphenylsulfide] | 700 | 2000 | – | – | – | – |
| CC(=O)Oc1ccccc1S/C=C\c1ccccc1 [Example 1, Z-styryl 2-acetoxyphenylsulfide] | 150 | 5000 | completely inhibited | above 20 μM | little affect | 100 |
